Measurements taken from US20220009920A1 (GB005, Inc., priority 2020, published 2022).

Columns and labels:
Experiment in all cases: Large panel kinase profiling
Type in all cases: biochemical
Details in all cases: 1 μM test article, 1 mM ATP
GRK2 = target: T1, GRK2 (Homo sapiens, UniProt P25098)
T1 construct: AssayQuant Technologies, Inc. (service provider)
T1 sequence (P25098 1-689): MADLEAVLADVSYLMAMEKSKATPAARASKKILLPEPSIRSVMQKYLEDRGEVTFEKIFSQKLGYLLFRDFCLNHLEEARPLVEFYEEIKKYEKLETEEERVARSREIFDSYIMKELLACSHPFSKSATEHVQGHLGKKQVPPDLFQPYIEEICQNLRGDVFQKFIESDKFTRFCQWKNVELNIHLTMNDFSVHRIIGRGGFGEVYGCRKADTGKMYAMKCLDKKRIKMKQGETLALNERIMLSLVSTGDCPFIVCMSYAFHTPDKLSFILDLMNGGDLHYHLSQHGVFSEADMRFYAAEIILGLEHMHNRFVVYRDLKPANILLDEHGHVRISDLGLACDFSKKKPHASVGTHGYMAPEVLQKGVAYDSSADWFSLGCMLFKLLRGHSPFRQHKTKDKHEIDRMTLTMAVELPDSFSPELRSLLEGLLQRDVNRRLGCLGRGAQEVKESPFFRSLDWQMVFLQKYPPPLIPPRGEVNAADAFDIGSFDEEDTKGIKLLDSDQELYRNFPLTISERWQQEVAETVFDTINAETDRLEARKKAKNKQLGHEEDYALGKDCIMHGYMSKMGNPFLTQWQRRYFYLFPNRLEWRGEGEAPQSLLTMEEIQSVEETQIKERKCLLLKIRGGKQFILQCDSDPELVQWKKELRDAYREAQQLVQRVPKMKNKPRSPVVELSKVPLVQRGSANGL
Method in brief: (§1)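 Activity is measured in real time from the CSox sensor's fluorescence at 485 nm after 360 nm excitation, sampled every minute. Assays run at 30° C. with 1 mM ATP and a single 1 μM compound dose.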

SGK3 = target: T2, SGK3 (Homo sapiens, UniProt Q96BR1)
T2 construct: AssayQuant Technologies, Inc. (contract assay)
T2 sequence (Q96BR1 1-496): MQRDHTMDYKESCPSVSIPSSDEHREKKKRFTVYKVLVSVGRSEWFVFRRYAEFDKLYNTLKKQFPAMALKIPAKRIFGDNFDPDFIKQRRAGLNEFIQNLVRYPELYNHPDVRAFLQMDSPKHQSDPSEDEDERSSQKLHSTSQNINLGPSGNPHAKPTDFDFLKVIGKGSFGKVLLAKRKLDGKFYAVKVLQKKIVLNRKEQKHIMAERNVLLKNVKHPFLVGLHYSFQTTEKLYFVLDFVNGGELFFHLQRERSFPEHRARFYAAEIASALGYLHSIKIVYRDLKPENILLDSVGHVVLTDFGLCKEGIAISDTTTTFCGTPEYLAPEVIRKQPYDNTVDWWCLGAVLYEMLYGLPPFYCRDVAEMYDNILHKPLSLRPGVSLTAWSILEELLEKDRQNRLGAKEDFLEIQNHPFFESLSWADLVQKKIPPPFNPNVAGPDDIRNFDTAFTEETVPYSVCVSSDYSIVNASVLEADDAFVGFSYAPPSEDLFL
Method in brief: as §1

SK1 = target: T3, SK1 (Homo sapiens, UniProt P57059)
T3 construct: AssayQuant Technologies, Inc. (contract assay)
T3 sequence (P57059 whole entry): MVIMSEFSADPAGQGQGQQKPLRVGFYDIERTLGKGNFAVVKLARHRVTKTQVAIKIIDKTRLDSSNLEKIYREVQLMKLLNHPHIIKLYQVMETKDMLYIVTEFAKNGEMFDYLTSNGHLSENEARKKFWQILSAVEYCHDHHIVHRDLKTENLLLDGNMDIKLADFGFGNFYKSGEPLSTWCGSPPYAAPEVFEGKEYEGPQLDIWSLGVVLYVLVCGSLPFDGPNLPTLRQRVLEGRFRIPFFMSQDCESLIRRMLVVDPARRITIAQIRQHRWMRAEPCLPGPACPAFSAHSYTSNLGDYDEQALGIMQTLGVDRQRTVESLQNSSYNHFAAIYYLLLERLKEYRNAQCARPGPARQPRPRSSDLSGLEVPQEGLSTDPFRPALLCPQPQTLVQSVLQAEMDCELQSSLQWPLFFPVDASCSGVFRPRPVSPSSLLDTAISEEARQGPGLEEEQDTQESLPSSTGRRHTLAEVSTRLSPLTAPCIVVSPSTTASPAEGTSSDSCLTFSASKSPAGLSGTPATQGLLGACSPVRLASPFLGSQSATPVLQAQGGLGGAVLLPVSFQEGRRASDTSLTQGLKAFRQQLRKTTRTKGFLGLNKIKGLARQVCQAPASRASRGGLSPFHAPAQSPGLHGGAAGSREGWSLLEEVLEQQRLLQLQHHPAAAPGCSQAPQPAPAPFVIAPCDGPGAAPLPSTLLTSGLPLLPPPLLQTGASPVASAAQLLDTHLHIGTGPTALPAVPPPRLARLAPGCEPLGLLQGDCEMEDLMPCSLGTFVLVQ
Method in brief: as §1

TBK1 = target: T4, TBK1 (Homo sapiens, UniProt Q9UHD2)
T4 construct: AssayQuant Technologies, Inc. (contract laboratory that ran the panel)
T4 sequence (Q9UHD2 1-729): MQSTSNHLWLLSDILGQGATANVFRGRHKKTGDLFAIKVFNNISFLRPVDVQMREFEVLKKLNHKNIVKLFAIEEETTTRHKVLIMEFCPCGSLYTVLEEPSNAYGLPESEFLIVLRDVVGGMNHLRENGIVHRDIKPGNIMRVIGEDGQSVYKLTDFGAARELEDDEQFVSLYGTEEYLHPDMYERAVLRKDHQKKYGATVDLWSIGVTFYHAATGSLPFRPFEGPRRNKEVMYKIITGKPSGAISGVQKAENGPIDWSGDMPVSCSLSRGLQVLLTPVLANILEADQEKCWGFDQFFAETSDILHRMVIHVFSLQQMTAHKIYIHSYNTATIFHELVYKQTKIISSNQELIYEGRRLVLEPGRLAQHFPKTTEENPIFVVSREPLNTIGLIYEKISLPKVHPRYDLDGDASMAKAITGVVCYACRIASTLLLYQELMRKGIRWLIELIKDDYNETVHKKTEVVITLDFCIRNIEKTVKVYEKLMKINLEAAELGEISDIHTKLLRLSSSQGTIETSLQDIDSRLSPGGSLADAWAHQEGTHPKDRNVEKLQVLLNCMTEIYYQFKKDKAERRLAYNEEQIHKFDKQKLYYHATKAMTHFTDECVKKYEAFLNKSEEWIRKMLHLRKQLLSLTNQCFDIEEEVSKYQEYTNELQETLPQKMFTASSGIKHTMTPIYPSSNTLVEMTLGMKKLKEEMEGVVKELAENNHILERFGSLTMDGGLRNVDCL
Method in brief: as §1

TYK2(JH1JH2) = target: T5, TYK2(JH1JH2) (Homo sapiens, UniProt P29597)
T5 construct: TYK2(JH1JH2); AssayQuant Technologies, Inc. (contract laboratory that ran the panel)
T5 sequence (P29597 575-1187 limits assumed, species assumed): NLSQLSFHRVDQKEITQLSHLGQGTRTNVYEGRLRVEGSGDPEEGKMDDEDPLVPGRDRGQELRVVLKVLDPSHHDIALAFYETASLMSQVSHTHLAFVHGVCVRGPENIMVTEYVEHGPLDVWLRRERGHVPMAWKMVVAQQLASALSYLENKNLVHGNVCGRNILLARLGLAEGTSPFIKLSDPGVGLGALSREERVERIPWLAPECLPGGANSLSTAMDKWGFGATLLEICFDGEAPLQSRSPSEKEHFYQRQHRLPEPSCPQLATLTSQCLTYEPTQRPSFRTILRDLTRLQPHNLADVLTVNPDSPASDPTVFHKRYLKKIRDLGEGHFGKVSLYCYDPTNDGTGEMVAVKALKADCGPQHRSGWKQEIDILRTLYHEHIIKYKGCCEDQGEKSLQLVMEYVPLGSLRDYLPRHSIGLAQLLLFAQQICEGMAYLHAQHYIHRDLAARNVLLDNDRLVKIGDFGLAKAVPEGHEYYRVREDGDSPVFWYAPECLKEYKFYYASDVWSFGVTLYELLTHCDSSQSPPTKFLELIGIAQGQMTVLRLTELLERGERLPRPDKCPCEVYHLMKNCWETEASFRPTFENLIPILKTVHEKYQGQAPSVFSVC
Method in brief: as §1

Compound	inhibition at 1 µM (GRK2)	inhibition at 1 µM (SGK3)	inhibition at 1 µM (SK1)	inhibition at 1 µM (TBK1)	inhibition at 1 µM (TYK2(JH1JH2))
C=CC(=O)N1CCCC(c2c(F)cc(C(N)=O)c3[nH]c4c(c23)CCCCC4)C1 (single isomer, unassigned) [Compound 5-6]	-14.8%	-28.1%	-13.6%	10.9%	18.9%
C=CC(=O)N1CCC[C@@H](c2c(F)cc(C(N)=O)c3[nH]c4c(c23)CCC4)C1 [Compound 10-2, (S)-8-(1-acryloylpiperidin-3-yl)-7-fluoro-1,2,3,4-tetrahydrocyclo-penta[b]indole-5-carboxamide]	-1.6%	-32.5%	13.5%	-31.3%	28.6%
C=CC(=O)N1CCC[C@@H](c2c(F)cc(C(N)=O)c3[nH]c4c(c23)CC2(CC4)CC2)C1 [Compound 6-2, (S)-5-(1-acryloylpiperidin-3-yl)-6-fluoro-1,2,4,9-tetrahydrospiro[carbazole-3,1′-cyclopropane]-8-carboxamide]	-10.5%	-19.9%	4.6%	-34.6%	-27.1%
